Laboratory results as given in patent publication US10272117B2, “Methods of using an activator of cereblon for neural cell expansion and the treatment of central nervous system disorders” (Celgene Corporation, priority 2014, dated 2019).

Test system: zebrafish embryos
Test: Quantitative PCR of gene expression in zebrafish embryos
Type: in vivo
Experimental: BRD7-knockdown zebrafish embryos show similar phenotypes as CRBN-overexpressing zebrafish embryos. For example, expression of HuC in untreated, CRBN-overexpressing, and BRD7-knockdown zebrafish embryos was compared by quantitative PCR. Quantitative PCR was performed as follows: 1.7 μg of random […] and oligo-dT primed cDNA synthesized by ReverTra Ace qPCR RT Kit (TOYOBO, Japan) (as template) were used for reverse transcription by THUNDERBIRD™ SYBR® qPCR Mix (Toyobo, Japan). 0.25 mM of each forward and reverse primers were used in the reaction, wherein the sequence of the forward primer was 5′-[…]-3′ (SEQ ID NO: 9); and the sequence of the reverse primer was 5′-[…]-3′ (SEQ ID NO: 10).
Expression of Pou5f1 (Oct3/4), c-Myc, Sox2, and Nanog in zebrafish embryos was analyzed by quantitative PCR. Quantitative RT (qRT)-PCR was performed as follows: 1.7 μg of random hexamer and oligo-dT primed cDNA synthesized by ReverTra Ace qPCR RT Kit (TOYOBO, Japan) (as template) were used for reverse transcription by THUNDERBIRD™ SYBR® qPCR Mix (Toyobo, Japan). 0.25 mM of each forward and reverse primers was used in the reaction. The sequences of primers for c-Myc are as follows: forward primer is 5′-[…]-3′ (SEQ ID NO: 15), and reverse primer is 5′-GTAAAACGACGGCCAGT-3′ (SEQ ID NO: 16). The sequences of primers for sox2 are as follows: forward primer is 5′-ACCCCGGAGGAAAACCAA-3′ (SEQ ID NO: 17), and reverse primer is 5′-CCCGGCAGGGTGTACTTG-3′ (SEQ ID NO: 18). The sequences of primers for nanog are as follows: forward primer is 5′-TACCCAACACACCAGCTTC-3′ (SEQ ID NO: 19), and reverse primer is 5′-GAAGGGTGTTTTTGGAGGA-3′ (SEQ ID NO: 20).
Expression of a pool of three genes, Ascl1, Brn2 (Pou3f2), and Myt1la, is sufficient to directly reprogram embryonic and postnatal fibroblasts into functional neurons. See, e.g., Vierbuchen and Wernig, Nat Biotechnol. 29:892-907 […]. […] Primer sequences for amplification for Ascl1a are as follows: forward primer is 5′-ACGAGCATGACGCCGTA-3′ (SEQ ID NO: 21), and reverse primer is 5′-[…]-3′ (SEQ ID NO: 22). Primer sequences for amplification for Pou3f2b are as follows: forward primer is 5′-[…]-3′ (SEQ ID NO: 23), and reverse primer is 5′-[…]-3′(SEQ ID NO: 24). Primer sequences for amplification for Myt1la are as follows: forward primer is 5′-[…]-3′ (SEQ ID NO: 25), and reverse primer is 5′-[…]-3′ (SEQ ID NO: 26). FIG. […]
Notch3 and Neuropilin2b (Nrp2b) are required for cell proliferation progression. Notch3 regulates the timing of neural differentiation from undifferentiated or immature cells, and Nrp2b regulates cell proliferation and remodeling in mesenchymal stem cells by cooperating with PDGF (platelet-derived growth factor). Therefore, expression of Notch3 and Neuropilin 2b (Nrp2b) was analyzed in untreated and CRBN-overexpressing zebrafish embryos by quantitative PCR. The primers used for Notch3 are as follows: the sequence for forward primer is 5′-[…]-3′ (SEQ ID NO: 27), and the sequence for reverse primer is 5′-[…]-3′ (SEQ ID NO: 28). The primers used for Nrp2b are as follows: the sequence of forward primer is 5′-[…]-3′ (SEQ ID NO: 29), and the sequence of reverse primer is 5′-[…]-3′ (SEQ ID NO: 30). FIG. 29A is a histogram showing the mRNA level of Notch3 and Nrp2b in untreated, CRBN-overexpressing, and thalidomide-treated zebrafish embryos at 11 hpf by quantitative PCR. As shown, expression of Notch3 in the CRBN-overexpressing embryos increased to 1.8-fold of the level in the untreated embryos at 11 hpf, and expression of Nrp2b in the CRBN-overexpressing embryos increased to 2.7-fold of the level in the untreated embryos at the same stage.
Elval3 (Huc) is a neural progenitor marker. Expression of Elavl3 (Huc) was also analyzed by quantitative PCR and in situ hybridization. […]

[1] = 11 hpf, compared to untreated embryos

| Substance | expression of Ascl1 (change) (11 hpf) | expression of Brn2 (Pou3f2b) (change) (11 hpf) | expression of Myt1l (change) (11 hpf) | expression of Nanog (change) (11 hpf, FIG. 13) | expression of Pou5f1 (change) (11 hpf, FIG. 13) | expression of Zic3 (change) (11 hpf, FIG. 13) | HuC (Elavl3) expression level (11 hpf, fold of level in untreated embryos) [fold] | expression of Ascl1 (change) (28 hpf) | expression of Myt1la (change) (28 hpf) | expression of Pou3f3a (change) (28 hpf) | expression of Ascl1a (change) (23 hpf) | expression of Pou3f2b (change) (23 hpf) | expression of Nanog (change) (28 hpf) | expression of Pou3f2b (change) (28 hpf) | expression of Sox2 (change) (28 hpf) | expression of c-Myc (change) (28 hpf) | Nanog expression [1] [fold] | Pou5f1 expression [1] [fold] | Sox2 expression [1] [fold] | Zic3 expression [1] [fold] |
| --- | --- | --- | --- | --- | --- | --- | --- | --- | --- | --- | --- | --- | --- | --- | --- | --- | --- | --- | --- | --- |
| 5′-TGTGTTTCTTGTGCTTTTTGCCCAT-3′ (all phosphorodiamidate morpholino (PMO)) [BRD7-knockdown, 25-mer antisense morpholino oligonucleotide (AMO) used for the BRD7 gene knockdown] | increased | increased | increased | increased | significantly increased | increased | 1.7 | increased | increased | increased | – | – | – | – | – | – | – | – | – | – |
| 5′-TTCCTGTGCCTCCTCAGTCTCCATC-3′ (all phosphorodiamidate morpholino (PMO)) [Ikaros-knockdown, 25-mer antisense morpholino oligonucleotide (AMO) used for the Ikaros gene knockdown] | – | – | – | – | – | – | – | increased | increased | increased | increased | increased | activated | increased | activated | activated | – | – | – | – |
| 5′-AGAGCTGTAGCTGGTTCCCCATTTC-3′ (all phosphorodiamidate morpholino (PMO)) [CRBN-knockdown, 25-mer antisense morpholino oligonucleotide (AMO) used for the CRBN gene knockdown, reference compound] | – | – | – | decreased | decreased | decreased | – | – | – | – | decreased | decreased | – | – | – | – | 0.8 | 0.8 | 0.7 | 0.8 |
